Experimental data from patent US20240156825A1, “USE OF SELECTIVE VEGFR2 AND FGFR1 INHIBITORS” (Fountain Therapeutics Inc., priority 2022, published 2024).
Like-named read-outs stand apart in the source and are kept apart here.

How the values were obtained:
VEGFR2 [1] = molecular target: T1, VEGFR2 (Homo sapiens, UniProt P35968); conditions: relative IC50: reported IC50 toward VEGFR2 divided by next lowest reported IC50 to any gene target
VEGFR2 [2] = molecular target: T1, VEGFR2; conditions: reported IC50 to VEGFR2, read-out: VEGFR2 IC50_μM, cited from earlier work
any gene target = conditions: cited from earlier work
[3] = Table 3, selective inhibitors of VEGFR2
[4] = lowest reported IC50 to any gene target, read-out: min IC50
[5] = next lowest IC50 value to any gene target, Table 3, read-out: Min IC50_μM
[6] = next lowest IC50 value to any gene target, read-out: Min IC50_μM

T1 sequence (P35968 20-1356, species assumed): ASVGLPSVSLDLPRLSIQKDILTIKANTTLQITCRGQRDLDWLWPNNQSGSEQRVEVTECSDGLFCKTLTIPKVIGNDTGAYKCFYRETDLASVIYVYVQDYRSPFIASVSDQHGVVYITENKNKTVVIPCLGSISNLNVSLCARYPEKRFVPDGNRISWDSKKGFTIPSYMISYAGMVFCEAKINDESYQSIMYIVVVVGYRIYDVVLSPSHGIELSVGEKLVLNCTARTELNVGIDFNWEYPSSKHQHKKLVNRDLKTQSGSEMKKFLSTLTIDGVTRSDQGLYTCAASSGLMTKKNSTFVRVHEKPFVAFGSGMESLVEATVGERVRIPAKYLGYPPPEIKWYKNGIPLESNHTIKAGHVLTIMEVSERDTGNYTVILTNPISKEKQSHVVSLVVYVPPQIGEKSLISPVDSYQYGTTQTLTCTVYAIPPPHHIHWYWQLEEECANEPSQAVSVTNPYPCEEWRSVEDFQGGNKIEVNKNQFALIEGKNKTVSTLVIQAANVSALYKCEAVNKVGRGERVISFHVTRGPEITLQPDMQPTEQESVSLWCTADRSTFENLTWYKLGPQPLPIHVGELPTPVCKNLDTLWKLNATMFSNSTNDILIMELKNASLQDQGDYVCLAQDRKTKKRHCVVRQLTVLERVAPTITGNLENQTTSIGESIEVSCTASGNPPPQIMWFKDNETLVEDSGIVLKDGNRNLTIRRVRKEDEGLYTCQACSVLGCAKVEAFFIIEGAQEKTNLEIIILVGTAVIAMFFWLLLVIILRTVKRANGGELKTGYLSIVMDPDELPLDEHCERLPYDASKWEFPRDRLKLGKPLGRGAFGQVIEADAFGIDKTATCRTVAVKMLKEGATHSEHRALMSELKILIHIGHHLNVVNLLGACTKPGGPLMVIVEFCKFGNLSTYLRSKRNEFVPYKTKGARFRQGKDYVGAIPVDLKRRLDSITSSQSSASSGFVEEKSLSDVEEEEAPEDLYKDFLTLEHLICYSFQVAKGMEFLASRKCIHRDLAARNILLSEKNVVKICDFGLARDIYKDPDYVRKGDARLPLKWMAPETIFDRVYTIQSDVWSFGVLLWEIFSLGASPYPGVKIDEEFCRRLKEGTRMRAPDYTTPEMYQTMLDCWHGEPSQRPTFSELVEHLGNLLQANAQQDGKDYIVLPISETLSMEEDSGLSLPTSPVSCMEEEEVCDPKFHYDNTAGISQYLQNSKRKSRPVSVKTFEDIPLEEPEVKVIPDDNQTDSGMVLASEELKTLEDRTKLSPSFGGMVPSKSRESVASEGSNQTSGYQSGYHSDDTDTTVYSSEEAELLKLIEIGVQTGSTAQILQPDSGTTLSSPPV

Structure (SMILES) | VEGFR2, rIC50 (VEGFR2 [1]) | IC50 (VEGFR2 [2]; [3]) [nM] | IC50 (any gene target; [5]) [nM] | also measured
CONC(=O)c1cc(Nc2ncnn3cc(-c4nc(C)no4)c(C(C)C)c23)c(F)cc1F [compound 11419379, 2,4-Difluoro-5-[5-isopropyl-6-(3-methyl-[1,2,4]oxadiazol-5-yl)-pyrrolo[2,1-f][1,2,4]triazin-4-ylamino]-N-methoxy-benzamide, reference compound] | 1.0 | 6.8 | 6.8 | IC50 (any gene target; [4]): 7 nM
Nc1c(C(=O)c2cc3cc(CN4CCOCC4)ccc3[nH]2)cnn1-c1cc(O)ccc1Cl [compound 134156584, [5-Amino-1-(2-chloro-5-hydroxyphenyl)pyrazol-4-yl]-[5-(morpholin-4-ylmethyl)-1H-indol-2-yl]methanone] | 5.6 |  |  | 
CCN1CCC(Nc2ccc3[nH]c(O)c(C(=C4N=c5ccccc5=N4)c4cccc(F)c4)c3c2)CC1 [compound 135488014, 3-[Benzimidazol-2-ylidene-(3-fluorophenyl)methyl]-5-[(1-ethylpiperidin-4-yl)amino]-1H-indol-2-ol] | 0.6 |  |  | 
CCN1CCC(Nc2ccc3[nH]c(O)c(C(=C4N=c5ccccc5=N4)c4cc(F)cc(F)c4)c3c2)CC1 [compound 135546228, 3-[Benzimidazol-2-ylidene-(3,5-difluorophenyl)methyl]-5-[(1-ethylpiperidin-4-yl)amino]-1H-indol-2-ol] | 0.7 |  |  | 
COC(=O)c1ccc2c(C(=Nc3ccc(C(=O)N(C)CCN(C)C)cc3)c3ccccc3)c(O)[nH]c2c1 [compound 135452890, Methyl 3-[N-[4-[2-(dimethylamino)ethyl-methylcarbamoyl]phenyl]-C-phenylcarbonimidoyl]-2-hydroxy-1H-indole-6-carboxylate] | 2.2 |  |  | 
COc1cc2c(Nc3ccc(Cl)c(Cl)c3)ncnc2cc1OCC1CN2CCOCC2CO1 (stereo not drawn) [compound 58013804] |  | 50 | 50 | 
O=C(NC1CC1)c1cc(NCc2cnc(Nc3ccccn3)s2)c(F)cc1F [compound 11632737] |  |  |  | IC50 (VEGFR2 [2]): 23 nM; IC50 (any gene target; [6]): 200 nM
COc1cc2c(Nc3ccc(C#N)cc3F)ncnc2cc1OC/C=C/CN1CCCC1 [compound 5329040] |  |  |  | IC50 (VEGFR2 [2]): 230 nM; IC50 (any gene target; [6]): 500 nM
COc1cc2c(Nc3ccc(Cl)c(Cl)c3)ncnc2cc1OCc1csc(C2CCN(C)CC2)n1 [compound 57802861] |  | 50 | 50 | 
COc1cc(C2=C(c3c[nH]c4ccccc34)CNC2=O)cc(OC)c1OC [compound 24894117] |  |  |  | IC50 (VEGFR2 [2]): 31 nM; IC50 (any gene target; [6]): 37 nM
COc1cc2c(Nc3ccc(C)cc3F)ncnc2cc1OCC1CCN(C)CC1 [compound 5329042] |  |  |  | IC50 (VEGFR2 [2]): 25 nM; IC50 (any gene target; [6]): 65 nM
COc1cc2c(Nc3ccc(Cl)cc3F)ncnc2cc1OC/C=C/CN1CCCC1 [compound 22478297] |  | 40 | 40 | 
COc1cc2c(Nc3ccc(Br)c(Cl)c3F)ncnc2cc1OCC1CN(C)CCO1 (stereo not drawn) [compound 57802566] |  | 50 | 50 | 
COc1cc2c(Nc3ccc(Cl)c(Cl)c3)ncnc2cc1OC[C@H]1CN2CCC[C@@H]2CO1 [compound 57802880] |  | 50 | 50 | 
COc1cc2c(Nc3ccc(Cl)cc3F)ncnc2cc1OCC1CCN(C)CC1 [compound 23133320] |  |  |  | IC50 (VEGFR2 [2]): 15 nM; IC50 (any gene target; [6]): 50 nM
COc1cc2c(Nc3ccc(Cl)c(Cl)c3)ncnc2cc1OCc1nc2c(s1)CNCC2 [compound 53630967] |  | 50 | 50 | 

More lines, main results first:

VEGFR2, rIC50 (VEGFR2 [1]) | Structure (SMILES) | IC50 (VEGFR2 [2]; [3]) [nM] | IC50 (any gene target; [5]) [nM] | also measured
1.0 | CONC(=O)c1cc(Nc2ncnn3cc(NC(=O)OCC4CCCO4)c(C(C)C)c23)c(F)cc1F (stereo not drawn) [compound 11477626, [4-(2,4-Difluoro-5-methoxycarbamoyl-phenylamino)-5-isopropyl-pyrrolo[2,1-f][1,2,4]triazin-6-yl]-carbamic acid tetrahydro-furan-2-ylmethyl ester] |  |  | 
2.0 | CCN1CCC(Nc2ccc3[nH]c(O)c(C(=C4N=c5ccccc5=N4)c4ccccc4)c3c2)CC1 [compound 135405015, 3-[Benzimidazol-2-ylidene(phenyl)methyl]-5-[(1-ethylpiperidin-4-yl)amino]-1H-indol-2-ol] |  |  | 
2.3 | COC(=O)c1ccc2c(c1)NC(=O)/C2=C(\Nc1ccc(N(CCN(C)C)S(C)(=O)=O)cc1)c1ccccc1 [compound 135456078, Methyl (3Z)-3-[[4-[2-(dimethylamino)ethyl-methylsulfonylamino]anilino]-phenylmethylidene]-2-oxo-1H-indole-6-carboxylate] |  |  | 
1.3 | COC(=O)c1ccc2c(c1)NC(=O)/C2=C(\Nc1ccc(N(CC(=O)N(C)C)C(C)=O)cc1)c1ccccc1 [compound 135456052, Methyl (3Z)-3-[[4-[acetyl-[2-(dimethylamino)-2-oxoethyl]amino]anilino]-phenylmethylidene]-2-oxo-1H-indole-6-carboxylate] |  |  | 
2.4 | COC(=O)c1ccc2c(c1)NC(=O)/C2=C(\Nc1ccc(N(CCN(C)C)C(C)=O)cc1)c1ccccc1 [compound 135528963, Methyl (3Z)-3-[[4-[acetyl-[2-(dimethylamino)ethyl]amino]anilino]-phenylmethylidene]-2-oxo-1H-indole-6-carboxylate] |  |  | 
1.6 | CCN1CCC(Nc2ccc3[nH]c(O)c(C(=C4N=c5ccccc5=N4)c4ccc(C)cc4)c3c2)CC1 [compound 135507297, 3-[Benzimidazol-2-ylidene-(4-methylphenyl)methyl]-5-[(1-ethylpiperidin-4-yl)amino]-1H-indol-2-ol] |  |  | 
1.0 | CONC(=O)c1cc(Nc2ncnn3cc(-c4nnc(CC5CC5)o4)c(C(C)C)c23)c(F)cc1F [compound 11155938, 5-[6-(5-Cyclopropylmethyl-[1,3,4]oxadiazol-2-yl)-5-isopropyl-pyrrolo[2,1-f][1,2,4]triazin-4-ylamino]-2,4-difluoro-N-methoxy-benzamide, reference compound] | 4 | 4 | IC50 (any gene target; [4]): 4 nM
3.0 | COC(=O)c1ccc2c(c1)NC(=O)/C2=C(\Nc1ccc(N(CCCN(C)C)C(C)=O)cc1)c1ccccc1 [compound 135405065] |  |  | 
1.0 | CONC(=O)c1cc(Nc2ncnn3cc(-c4nnc(C5CC5)o4)c(C(C)C)c23)c(F)cc1F [compound 11465545, 5-[6-(5-Cyclopropyl-[1,3,4]oxadiazol-2-yl)-5-isopropyl-pyrrolo[2,1-f][1,2,4]triazin-4-ylamino]-2,4-difluoro-N-methoxy-benzamide, reference compound] | 3.6 | 3.6 | IC50 (any gene target; [4]): 4 nM
10.3 | Nc1c(C(=O)c2cc3ccccc3[nH]2)cnn1-c1ccc2nc[nH]c2c1 [compound 68005732, [5-Amino-1-(1H-benzimidazol-6-yl)-1H-pyrazol-4-yl]-1H-indol-2-ylMethanone] |  |  | 
2.3 | COC(=O)c1ccc2c(c1)NC(=O)C2=C(Nc1ccc(CN(C)C)cc1)c1ccccc1 [compound 135522918, Methyl 3-[[4-[(dimethylamino)methyl]anilino]-phenylmethylidene]-2-oxo-1H-indole-6-carboxylate] |  |  | 
1.0 | CONC(=O)c1cc(Nc2ncnn3cc(-c4ncc(C)o4)c(C(C)C)c23)c(F)cc1F [compound 10388612, 2,4-Difluoro-5-[5-isopropyl-6-(5-methyl-oxazol-2-yl)-pyrrolo[2,1-f][1,2,4]triazin-4-ylamino]-N-methoxy-benzamide, reference compound] | 1.1 | 1.1 | IC50 (any gene target; [4]): 1 nM
